Experimental data: patent publication US20100261723A1, “TRISUBSTITUTED PYRIMIDINE DERIVATIVES FOR THE TREATMENT OF PROLIFERATIVE DISEASES” (ASTRAZENECA AB, priority 2007, published 2010)
“And” between values parts separate entries of the source, which are not always exact repeats. Equal values may be shown once. Read-outs that look alike come from different tables or passages of the source.

Columns and labels:
Serine 473 in Akt = assay: In vitro phospho-Ser473 Akt assay, Test (c); type: cell-based; settings: MDA-MB-468 human breast adenocarcinoma cells, 2 hours; read-out: IC50 versus Serine 473 in Akt, Test (c)
Method: (c) In Vitro Phospho-SeR473 Akt Assay
This assay determines the ability of test compounds to inhibit phosphorylation of Serine 473 in Akt as assessed using Acumen Explorer technology (Acumen Bioscience Limited), a plate reader that can be used to rapidly quantitate features of images generated by laser-scanning.
A MDA-MB-468 human breast adenocarcinoma cell line (LGC Promochem, Teddington, Middlesex, UK, Catalogue No. HTB-132) was routinely maintained at 37° C. with 5% CO2 up to a confluency of 70-90% in DMEM containing 10% heat-inactivated FCS and 1% L-glutamine.
For the assay, the cells were detached from the culture flask using ‘Accutase’ (Innovative Cell Technologies Inc., San Diego, Calif., USA; Catalogue No. AT104) using standard tissue culture methods and resuspended in media to give 1.7×10^5 cells per mL. […]
All subsequent aspiration and wash steps were carried out using a Tecan 96 well plate washer (aspiration speed 10 mm/sec). […] An aliquot of PBS (50 μl) was added to each well and the plates were sealed with black plate sealers and the fluorescence signal was detected and analysed.
Fluorescence dose response data obtained with each compound were analysed and the degree of inhibition of Serine 473 in Akt was expressed as an IC50 value.

mTOR kinase = biological target: T1, mTOR kinase (Homo sapiens, UniProt P42345); assay: In vitro mTOR kinase assay, Test (a)(i) (AlphaScreen); type: biochemical
T1 construct: FLAG; made in house
T1 sequence (P42345 1362-2549): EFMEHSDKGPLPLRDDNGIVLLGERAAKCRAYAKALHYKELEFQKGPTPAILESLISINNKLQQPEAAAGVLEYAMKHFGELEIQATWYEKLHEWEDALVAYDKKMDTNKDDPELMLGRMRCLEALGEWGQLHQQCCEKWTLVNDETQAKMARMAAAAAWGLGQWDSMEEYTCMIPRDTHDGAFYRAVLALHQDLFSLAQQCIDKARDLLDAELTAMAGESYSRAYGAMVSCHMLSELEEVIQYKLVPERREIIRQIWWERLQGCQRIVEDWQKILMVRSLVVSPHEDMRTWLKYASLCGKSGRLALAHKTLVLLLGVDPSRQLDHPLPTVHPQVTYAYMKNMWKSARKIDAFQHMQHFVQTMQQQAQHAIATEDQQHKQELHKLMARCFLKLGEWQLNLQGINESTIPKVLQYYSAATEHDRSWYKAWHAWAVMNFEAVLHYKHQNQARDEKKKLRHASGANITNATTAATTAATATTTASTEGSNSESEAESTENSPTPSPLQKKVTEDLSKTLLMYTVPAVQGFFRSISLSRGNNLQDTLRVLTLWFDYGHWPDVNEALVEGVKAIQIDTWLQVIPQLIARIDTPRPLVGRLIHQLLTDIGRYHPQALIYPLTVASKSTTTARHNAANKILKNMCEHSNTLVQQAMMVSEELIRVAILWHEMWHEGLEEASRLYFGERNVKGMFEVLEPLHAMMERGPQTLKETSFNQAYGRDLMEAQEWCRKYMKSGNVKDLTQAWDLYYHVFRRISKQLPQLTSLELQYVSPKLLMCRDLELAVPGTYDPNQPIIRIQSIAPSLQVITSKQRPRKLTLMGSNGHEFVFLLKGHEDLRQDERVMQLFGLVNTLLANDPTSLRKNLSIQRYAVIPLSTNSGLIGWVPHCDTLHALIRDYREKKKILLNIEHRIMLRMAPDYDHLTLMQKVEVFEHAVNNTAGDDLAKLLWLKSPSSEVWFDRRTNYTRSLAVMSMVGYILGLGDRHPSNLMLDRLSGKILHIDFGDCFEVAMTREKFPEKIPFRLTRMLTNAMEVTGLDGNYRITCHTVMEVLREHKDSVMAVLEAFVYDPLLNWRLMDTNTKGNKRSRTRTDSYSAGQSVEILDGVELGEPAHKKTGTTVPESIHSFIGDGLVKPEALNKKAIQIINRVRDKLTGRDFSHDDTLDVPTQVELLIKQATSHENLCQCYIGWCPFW
Method: (a)(i) In Vitro mTOR Kinase Assay
A C-terminal truncation of mTOR encompassing amino acid residues 1362 to 2549 of mTOR (EMBL Accession No. L34075) was stably expressed as a FLAG-tagged fusion in HEK293 cells as described by Vilella-Bach et al., […], 1999, 274, 4266-4272. The HEK293 FLAG-tagged mTOR (1362-2549) stable cell line was routinely maintained at 37° C. with 5% CO2 up to a confluency of 70-90% in Dulbecco's modified Eagle's growth medium (DMEM; Invitrogen Limited, Paisley, UK Catalogue No. 41966-029) containing 10% heat-inactivated foetal calf serum (FCS; Sigma, Poole, Dorset, UK, Catalogue No. F0392), 1% L-glutamine (Gibco, Catalogue No. 25030-024) and 2 mg/ml Geneticin (G418 sulfate; Invitrogen Limited, UK Catalogue No. 10131-027). Following expression in the mammalian HEK293 cell line, expressed protein was purified using the FLAG epitope tag using standard purification techniques.
A 30 μl mixture of recombinant purified mTOR enzyme, 1 μM biotinylated peptide substrate (Biotin-Ahx-[…]NH2; Bachem UK Ltd), ATP (20 μM) and a buffer solution [comprising Tris-HCl pH7.4 buffer (50 mM), EGTA (0.1 mM), bovine serum albumin (0.5 mg/mL), DTT (1.25 mM) and manganese chloride (10 mM)] was agitated at room temperature for 90 minutes.
These assay solutions were incubated for 2 hours at room temperature.
Phosphorylated biotinylated peptide is formed in situ as a result of mTOR mediated phosphorylation. The phosphorylated biotinylated peptide that is associated with AlphaScreen Streptavidin donor beads forms a complex with the p70 S6 Kinase (T389) 1A5 Monoclonal Antibody that is associated with Alphascreen Protein A acceptor beads. […] Accordingly, the presence of mTOR kinase activity results in an assay signal. In the presence of an mTOR kinase inhibitor, signal strength is reduced.

p110α Type Ia human PI3K = biological target: T2, p110α Type Ia human PI3K (Homo sapiens, UniProt P42336); assay: In vitro PI3K enzyme assay, Test (b)(i) (AlphaScreen); type: biochemical; settings: individual values, measured twice; read-out: IC50 versus p110α Type Ia human PI3K, Test (b)(i)
T2 construct: full length DNA of each of the p110α, p110β and p110δ Type Ia human PI3K p110 isoforms; 6-His; made in house
T2 sequence (P42336 whole entry, canonical isoform): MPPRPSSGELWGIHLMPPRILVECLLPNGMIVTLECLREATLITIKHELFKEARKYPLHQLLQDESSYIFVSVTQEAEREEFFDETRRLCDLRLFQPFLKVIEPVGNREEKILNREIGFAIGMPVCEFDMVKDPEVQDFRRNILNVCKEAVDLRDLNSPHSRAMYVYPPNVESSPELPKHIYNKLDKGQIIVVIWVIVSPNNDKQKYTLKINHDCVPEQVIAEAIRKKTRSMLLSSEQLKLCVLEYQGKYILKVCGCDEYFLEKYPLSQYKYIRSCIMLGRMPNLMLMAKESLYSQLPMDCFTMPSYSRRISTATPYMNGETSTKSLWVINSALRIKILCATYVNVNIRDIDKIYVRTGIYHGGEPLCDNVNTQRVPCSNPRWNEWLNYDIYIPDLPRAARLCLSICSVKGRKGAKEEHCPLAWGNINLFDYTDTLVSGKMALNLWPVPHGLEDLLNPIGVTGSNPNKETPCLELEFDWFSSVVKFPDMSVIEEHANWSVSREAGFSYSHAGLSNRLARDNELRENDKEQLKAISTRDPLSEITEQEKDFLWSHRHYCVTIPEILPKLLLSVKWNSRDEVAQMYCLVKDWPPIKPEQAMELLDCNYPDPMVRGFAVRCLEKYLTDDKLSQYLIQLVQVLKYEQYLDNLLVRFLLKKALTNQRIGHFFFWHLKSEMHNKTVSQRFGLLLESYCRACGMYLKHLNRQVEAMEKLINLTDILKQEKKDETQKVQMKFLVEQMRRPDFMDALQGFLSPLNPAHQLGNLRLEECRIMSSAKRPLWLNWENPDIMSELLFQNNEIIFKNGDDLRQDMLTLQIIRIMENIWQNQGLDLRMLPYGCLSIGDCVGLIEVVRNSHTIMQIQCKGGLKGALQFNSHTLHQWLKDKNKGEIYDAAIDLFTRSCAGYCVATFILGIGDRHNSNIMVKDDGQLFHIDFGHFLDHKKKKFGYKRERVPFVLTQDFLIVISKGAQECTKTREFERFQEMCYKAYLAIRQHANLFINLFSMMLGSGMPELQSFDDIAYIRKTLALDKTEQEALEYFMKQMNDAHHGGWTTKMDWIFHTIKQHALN
T2 sequence (P27986 whole entry partner, canonical isoform): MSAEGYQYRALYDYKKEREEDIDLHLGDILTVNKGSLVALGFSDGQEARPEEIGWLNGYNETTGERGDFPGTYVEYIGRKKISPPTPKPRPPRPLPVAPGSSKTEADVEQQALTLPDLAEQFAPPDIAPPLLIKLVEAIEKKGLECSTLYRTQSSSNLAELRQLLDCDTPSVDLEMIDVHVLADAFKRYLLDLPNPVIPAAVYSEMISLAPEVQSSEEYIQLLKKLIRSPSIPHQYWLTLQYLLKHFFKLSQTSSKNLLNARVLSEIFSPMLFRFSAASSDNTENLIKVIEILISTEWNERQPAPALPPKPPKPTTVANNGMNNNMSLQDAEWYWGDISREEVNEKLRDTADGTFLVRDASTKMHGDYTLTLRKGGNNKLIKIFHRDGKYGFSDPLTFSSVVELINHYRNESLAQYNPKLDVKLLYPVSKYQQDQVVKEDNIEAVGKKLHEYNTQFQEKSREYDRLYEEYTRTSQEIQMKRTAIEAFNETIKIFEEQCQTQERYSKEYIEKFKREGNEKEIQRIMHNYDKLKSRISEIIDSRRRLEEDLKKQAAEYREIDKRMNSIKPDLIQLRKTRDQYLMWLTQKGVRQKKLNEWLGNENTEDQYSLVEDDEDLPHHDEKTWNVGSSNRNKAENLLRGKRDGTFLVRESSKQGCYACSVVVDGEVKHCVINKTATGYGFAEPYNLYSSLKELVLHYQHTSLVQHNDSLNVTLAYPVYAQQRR
Text: (b)(i) In Vitro PI3K Enzyme Assay

IC50 (Serine 473 in Akt): 7.77 µM
IC50 (mTOR kinase; individual values, measured twice, read-out: IC50 versus mTOR kinase, Test (a)(i)): 2.46 µM and 1.64 µM
IC50 (mTOR kinase; recombinant FLAG-tagged mTOR (1362-2549), ATP 20 μM, read-out: Test (a)(i) IC50): 2 µM
IC50 (p110α Type Ia human PI3K): 93.3 µM and 51.6 µM
SMILES: CN(C)CC(=O)Nc1ccc(-c2nc(CS(C)(=O)=O)cc(N3CCOCC3)n2)cc1 [Example 5p, 2-dimethylamino-N-[4-[4-(methylsulfonylmethyl)-6-morpholin-4-yl-pyrimidin-2-yl]phenyl]acetamide]
